Measurements reported in paper PMC4503722, “Novel Phenotypic Outcomes Identified for a Public Collection of Approved Drugs from a Publicly Accessible Panel of Assays” (PLoS ONE, 2015).

How the values were obtained:
HeLa cells = assay: cells; assay type: cell-based; details: for Hela CellCycMod PI 2N IC50/EC50: assay number 14; for Hela CellCycMod PI 4N IC50/EC50: assay number 16; for Hela CellCycMod PI MI IC50/EC50: assay number 17; for Hela CellCycMod PI Cell Number IC50/EC50: assay number 18; for Hela CellCycMod PI S Phase IC50/EC50: assay number 15
hGSK3b = molecular target: T1, hGSK3b (Homo sapiens, UniProt P49841); assay: Cerep LANCE kinase assay hGSK3b (S1 assay 34); assay type: biochemical; details: assay number 34
T1 construct: purchased Cerep (LANCE kinase assay platform, contract assay)
T1 sequence (P49841 whole entry): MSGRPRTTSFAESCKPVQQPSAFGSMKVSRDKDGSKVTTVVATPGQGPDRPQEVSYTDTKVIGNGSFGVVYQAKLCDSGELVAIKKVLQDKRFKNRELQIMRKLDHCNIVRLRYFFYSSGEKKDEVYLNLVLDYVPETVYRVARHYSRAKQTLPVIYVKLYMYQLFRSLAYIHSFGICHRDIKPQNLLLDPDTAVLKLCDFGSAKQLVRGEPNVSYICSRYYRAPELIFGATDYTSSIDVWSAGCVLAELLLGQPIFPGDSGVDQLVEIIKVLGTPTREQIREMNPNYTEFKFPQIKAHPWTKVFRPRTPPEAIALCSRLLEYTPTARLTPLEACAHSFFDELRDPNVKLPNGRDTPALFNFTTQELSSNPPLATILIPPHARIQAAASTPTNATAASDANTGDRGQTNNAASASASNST

hKDR = molecular target: T2, hKDR (Homo sapiens, UniProt P35968); assay: Cerep LANCE kinase assay hKDR (S1 assay 32); assay type: biochemical; details: assay number 32
T2 construct: purchased Cerep (LANCE kinase assay platform, contract assay)
T2 sequence (P35968 20-1356): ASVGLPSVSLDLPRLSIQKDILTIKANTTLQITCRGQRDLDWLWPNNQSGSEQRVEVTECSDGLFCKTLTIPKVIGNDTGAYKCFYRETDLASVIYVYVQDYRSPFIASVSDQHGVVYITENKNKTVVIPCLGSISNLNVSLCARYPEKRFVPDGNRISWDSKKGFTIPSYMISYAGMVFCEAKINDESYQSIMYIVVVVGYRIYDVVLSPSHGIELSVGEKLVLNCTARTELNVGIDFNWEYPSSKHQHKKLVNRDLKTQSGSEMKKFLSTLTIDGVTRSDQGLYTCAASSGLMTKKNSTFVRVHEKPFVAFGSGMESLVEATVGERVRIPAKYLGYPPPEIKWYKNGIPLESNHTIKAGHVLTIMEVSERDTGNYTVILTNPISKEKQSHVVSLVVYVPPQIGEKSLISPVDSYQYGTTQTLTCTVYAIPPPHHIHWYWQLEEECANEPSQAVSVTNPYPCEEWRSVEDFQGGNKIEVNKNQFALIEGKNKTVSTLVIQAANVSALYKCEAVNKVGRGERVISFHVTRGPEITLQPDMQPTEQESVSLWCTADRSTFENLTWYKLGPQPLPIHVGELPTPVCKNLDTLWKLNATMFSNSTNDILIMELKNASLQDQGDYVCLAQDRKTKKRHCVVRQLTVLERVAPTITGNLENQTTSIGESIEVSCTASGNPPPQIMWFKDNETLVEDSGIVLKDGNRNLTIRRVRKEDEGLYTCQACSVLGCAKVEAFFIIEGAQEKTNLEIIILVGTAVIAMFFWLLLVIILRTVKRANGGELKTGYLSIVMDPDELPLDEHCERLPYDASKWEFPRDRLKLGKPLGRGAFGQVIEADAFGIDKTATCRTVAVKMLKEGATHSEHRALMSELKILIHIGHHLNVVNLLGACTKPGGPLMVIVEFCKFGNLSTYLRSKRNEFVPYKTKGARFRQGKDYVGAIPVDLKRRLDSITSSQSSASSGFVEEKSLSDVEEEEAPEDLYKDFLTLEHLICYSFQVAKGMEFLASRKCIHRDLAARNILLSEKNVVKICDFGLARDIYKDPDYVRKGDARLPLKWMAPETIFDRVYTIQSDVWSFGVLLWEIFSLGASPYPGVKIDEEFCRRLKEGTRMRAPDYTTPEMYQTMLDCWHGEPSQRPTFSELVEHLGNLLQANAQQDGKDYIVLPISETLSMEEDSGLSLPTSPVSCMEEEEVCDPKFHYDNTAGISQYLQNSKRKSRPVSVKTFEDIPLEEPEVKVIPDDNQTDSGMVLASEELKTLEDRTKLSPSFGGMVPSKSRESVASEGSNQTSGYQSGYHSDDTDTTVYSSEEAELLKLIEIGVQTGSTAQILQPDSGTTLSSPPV

hp70S6K1 (RPS6KB1) = molecular target: T3, hp70S6K1 (RPS6KB1) (Homo sapiens, UniProt P23443); assay: Cerep LANCE kinase assay hp70S6K1 (S1 assay 31); assay type: biochemical; details: assay number 31
T3 construct: purchased Cerep (LANCE kinase assay platform, contract assay)
T3 sequence (P23443 whole entry): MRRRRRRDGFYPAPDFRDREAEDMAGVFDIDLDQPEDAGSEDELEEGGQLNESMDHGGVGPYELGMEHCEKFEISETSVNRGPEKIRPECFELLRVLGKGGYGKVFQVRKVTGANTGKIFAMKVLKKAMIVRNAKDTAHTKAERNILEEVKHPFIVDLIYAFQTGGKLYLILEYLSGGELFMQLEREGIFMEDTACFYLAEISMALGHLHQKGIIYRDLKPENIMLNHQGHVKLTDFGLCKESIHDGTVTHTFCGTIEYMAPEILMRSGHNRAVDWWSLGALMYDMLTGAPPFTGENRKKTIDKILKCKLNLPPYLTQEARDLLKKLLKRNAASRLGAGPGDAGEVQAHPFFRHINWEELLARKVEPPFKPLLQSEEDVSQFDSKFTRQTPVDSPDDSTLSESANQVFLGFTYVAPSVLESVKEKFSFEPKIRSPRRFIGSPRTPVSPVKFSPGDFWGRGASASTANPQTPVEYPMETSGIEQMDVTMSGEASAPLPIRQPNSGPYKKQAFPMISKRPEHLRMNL

[1] = test system: endothelial tube formation in co-cultures of ECFCs and ADSCs treated with VEGF; assay: cells; assay type: cell-based, human
[2] = test system: ECFC/ADSC co-culture cell nuclei number
[3] = test system: alkaline phosphatase (ALP) activity in C2C12 cells; assay type: cell-based; details: concentration response; for WntCondMedia_Alk Phos C2C12 IC50/EC50: assay number 6
[4] = test system: nuclear β-catenin in C2C12 cells; assay: cells; assay type: cell-based; details: concentration response; for WntCondMedia_bCatenin C2C12 IC50/EC50: assay number 5
hFLT3 = molecular target: T4, hFLT3 (Homo sapiens, UniProt P36888); assay: Cerep LANCE kinase assay hFLT3 (S1 assay 35); assay type: biochemical; details: assay number 35
T4 construct: purchased Cerep (LANCE kinase assay platform, contract assay)
T4 sequence (P36888 27-993): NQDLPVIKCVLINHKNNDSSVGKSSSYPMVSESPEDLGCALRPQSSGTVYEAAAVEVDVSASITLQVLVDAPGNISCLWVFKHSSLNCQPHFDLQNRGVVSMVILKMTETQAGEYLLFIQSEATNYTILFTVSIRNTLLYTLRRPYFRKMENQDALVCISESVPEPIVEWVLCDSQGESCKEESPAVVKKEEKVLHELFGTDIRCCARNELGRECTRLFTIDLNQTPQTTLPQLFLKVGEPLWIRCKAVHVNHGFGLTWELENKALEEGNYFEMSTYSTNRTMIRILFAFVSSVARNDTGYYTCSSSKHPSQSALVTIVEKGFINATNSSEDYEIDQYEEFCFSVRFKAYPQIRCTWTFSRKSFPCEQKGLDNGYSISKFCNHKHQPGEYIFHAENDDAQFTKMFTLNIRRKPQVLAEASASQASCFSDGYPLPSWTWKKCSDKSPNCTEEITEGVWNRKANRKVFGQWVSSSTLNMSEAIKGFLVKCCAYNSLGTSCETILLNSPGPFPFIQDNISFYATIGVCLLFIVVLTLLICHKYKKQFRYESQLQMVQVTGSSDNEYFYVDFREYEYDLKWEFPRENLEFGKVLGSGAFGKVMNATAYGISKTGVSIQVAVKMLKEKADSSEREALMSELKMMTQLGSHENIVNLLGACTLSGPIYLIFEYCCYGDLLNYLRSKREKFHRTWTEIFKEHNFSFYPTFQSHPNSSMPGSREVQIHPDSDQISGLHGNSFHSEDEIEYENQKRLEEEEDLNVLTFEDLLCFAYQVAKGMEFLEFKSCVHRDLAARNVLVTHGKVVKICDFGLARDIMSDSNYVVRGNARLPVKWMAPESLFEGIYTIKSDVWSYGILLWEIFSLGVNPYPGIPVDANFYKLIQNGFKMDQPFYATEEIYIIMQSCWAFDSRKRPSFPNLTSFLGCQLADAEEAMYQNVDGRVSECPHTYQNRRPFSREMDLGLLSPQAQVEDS

hJAK2 = molecular target: T5, hJAK2 (Homo sapiens, UniProt O60674); assay: Cerep LANCE kinase assay hJAK2 (S1 assay 33); assay type: biochemical; details: assay number 33
T5 construct: purchased Cerep (LANCE kinase assay platform, contract assay)
T5 sequence (O60674 whole entry): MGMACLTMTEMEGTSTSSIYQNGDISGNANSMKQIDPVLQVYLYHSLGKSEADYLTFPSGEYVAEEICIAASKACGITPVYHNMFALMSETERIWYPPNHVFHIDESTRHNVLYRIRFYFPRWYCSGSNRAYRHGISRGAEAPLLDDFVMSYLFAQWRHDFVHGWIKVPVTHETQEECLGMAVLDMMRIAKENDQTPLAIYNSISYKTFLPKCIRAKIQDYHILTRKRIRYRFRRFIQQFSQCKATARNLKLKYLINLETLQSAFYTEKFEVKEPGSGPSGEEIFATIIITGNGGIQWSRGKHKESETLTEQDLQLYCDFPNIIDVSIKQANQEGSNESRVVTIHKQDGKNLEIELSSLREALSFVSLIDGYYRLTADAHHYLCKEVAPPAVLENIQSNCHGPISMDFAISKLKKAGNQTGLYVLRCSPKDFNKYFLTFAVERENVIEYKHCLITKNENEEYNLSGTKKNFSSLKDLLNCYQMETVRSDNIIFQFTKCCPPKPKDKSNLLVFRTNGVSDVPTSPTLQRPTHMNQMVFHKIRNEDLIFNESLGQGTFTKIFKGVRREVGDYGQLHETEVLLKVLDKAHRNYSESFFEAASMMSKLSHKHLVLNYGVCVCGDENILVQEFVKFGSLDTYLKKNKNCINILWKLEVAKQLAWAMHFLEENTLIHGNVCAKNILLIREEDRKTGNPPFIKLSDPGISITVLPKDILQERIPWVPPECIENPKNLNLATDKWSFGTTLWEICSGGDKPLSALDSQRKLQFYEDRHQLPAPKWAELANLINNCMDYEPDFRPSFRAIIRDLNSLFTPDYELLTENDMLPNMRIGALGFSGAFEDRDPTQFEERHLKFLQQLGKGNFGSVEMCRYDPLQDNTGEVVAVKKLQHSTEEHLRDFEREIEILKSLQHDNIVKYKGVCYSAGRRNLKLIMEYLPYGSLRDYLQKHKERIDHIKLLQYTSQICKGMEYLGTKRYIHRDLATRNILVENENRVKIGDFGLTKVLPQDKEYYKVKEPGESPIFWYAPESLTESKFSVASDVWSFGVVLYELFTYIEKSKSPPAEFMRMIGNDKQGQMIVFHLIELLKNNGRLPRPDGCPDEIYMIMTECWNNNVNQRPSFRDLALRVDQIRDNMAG

INS-1E cells = assay: cells; assay type: cell-based, rat; details: 5 mM glucose;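 also: secreted insulin quantified by homogeneous immunoassay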
DLD-1 = assay: cells; assay type: cell-based; details: assay number 23; basal
[5] = test system: HCT116 cells treated with a GSK3β inhibitor; assay: cells; assay type: cell-based; details: assay number 26; GSK3b inhibitor pretreated
HT-29 = assay: cells; assay type: cell-based; details: assay number 28; basal
RKO = assay: cells; assay type: cell-based; details: assay number 29; basal
SW480 = assay: cells; assay type: cell-based; details: assay number 24; basal
SNU-C1 = assay: cells; assay type: cell-based; details: assay number 30; basal
Colo320 = assay: cells; assay type: cell-based; details: assay number 27; basal
HCT116 = assay: cells; assay type: cell-based; details: assay number 25; basal

SMILES: CC[C@@H]([C@H](C)O)n1ncn(-c2ccc(N3CCN(c4ccc(OC[C@@H]5CO[C@@](Cn6cncn6)(c6ccc(F)cc6F)C5)cc4)CC3)cc2)c1=O [NCGC00274060-01]
- Hela CellCycMod PI 2N IC50/EC50 (HeLa cells): > 10 µM
- Hela CellCycMod PI 4N IC50/EC50 (HeLa cells): > 10 µM
- Hela CellCycMod PI MI IC50/EC50 (HeLa cells): > 10 µM
- Hela CellCycMod PI Cell Number IC50/EC50 (HeLa cells): > 10 µM
- hGSK3b LANCE IC50/EC50 (hGSK3b): > 20 µM
- hKDR LANCE IC50/EC50 (hKDR): > 20 µM
- hp70S6K1 LANCE IC50/EC50 (hp70S6K1 (RPS6KB1)): > 20 µM
- VEGF_ADSC\ECFC Angio CD31 TubeArea IC50/EC50 [1]: 6.461 µM
- VEGF_ADSC\ECFC Angio Hoechst NucArea IC50/EC50 [2]: > 10 µM
- WntCondMedia_Alk Phos C2C12 IC50/EC50 [3]: 1.6342 µM
- WntCondMedia_bCatenin C2C12 IC50/EC50 [4]: 5.2923 µM
- hFLT3 LANCE IC50/EC50 (hFLT3): > 20 µM
- hJAK2 LANCE IC50/EC50 (hJAK2): > 20 µM

SMILES: CN1C[C@H](CNC(=O)OCc2ccccc2)C[C@@H]2c3cccc4c3c(cn4C)C[C@H]21 [NCGC00017257-14]
- IC50/EC50, 5mMGluc_INS1E SecretionMod (assay number 8) (INS-1E cells): > 33.33 µM
- IC50/EC50, WntCondMedia_Alk Phos C2C12 (assay number 6) [3]: > 20 µM
- IC50/EC50, WntCondMedia_bCatenin C2C12 (assay number 5) [4]: > 20 µM

SMILES: COc1cccc2c1C(=O)c1c(O)c3c(c(O)c1C2=O)C[C@@](O)(C(=O)CO)C[C@@H]3O[C@H]1C[C@H](N)[C@H](O[C@@H]2CCCCO2)[C@H](C)O1 [NCGC00344543-01]
- Hela CellCycMod PI 2N IC50/EC50 (HeLa cells): 0.0795 µM
- Hela CellCycMod PI S Phase IC50/EC50 (HeLa cells): 1.746 µM
- Hela CellCycMod PI 4N IC50/EC50 (HeLa cells): 0.08063 µM
- Hela CellCycMod PI MI IC50/EC50 (HeLa cells): > 10 µM
- Hela CellCycMod PI Cell Number IC50/EC50 (HeLa cells): 0.05143 µM
- Basal_Viability ATP DLD-1 IC50/EC50 (DLD-1): 8.952 µM
- GSK3b inh pretreated_Viability ATP HCT116 IC50/EC50 [5]: 1.275 µM
- Basal_Viability ATP HT-29 IC50/EC50 (HT-29): > 20 µM
- Basal_Viability ATP RKO IC50/EC50 (RKO): 1.01 µM
- Basal_Viability ATP SW480 IC50/EC50 (SW480): 7.822 µM
- Basal_Viability ATP SNU-C1 IC50/EC50 (SNU-C1): 9.2617 µM
- Basal_Viability ATP Colo 320 IC50/EC50 (Colo320): 2.013 µM
- VEGF_ADSC\ECFC Angio CD31 TubeArea IC50/EC50 [1]: 0.0063 µM
- VEGF_ADSC\ECFC Angio Hoechst NucArea IC50/EC50 [2]: 0.9949 µM
- WntCondMedia_Alk Phos C2C12 IC50/EC50 [3]: 3.9488 µM
- Basal_Viability ATP HCT116 IC50/EC50 (HCT116): 0.9107 µM
- WntCondMedia_bCatenin C2C12 IC50/EC50 [4]: > 20 µM

SMILES: CCCN(CCC)C(=O)C(CCC(=O)OCCCN1CCN(CCOC(=O)Cc2c(C)n(C(=O)c3ccc(Cl)cc3)c3ccc(OC)cc23)CC1)NC(=O)c1ccccc1 (stereo not shown) [NCGC00183024-01]
- Hela CellCycMod PI 2N IC50/EC50 (HeLa cells): > 10 µM
- Hela CellCycMod PI 4N IC50/EC50 (HeLa cells): > 10 µM
- Hela CellCycMod PI MI IC50/EC50 (HeLa cells): > 10 µM
- Hela CellCycMod PI Cell Number IC50/EC50 (HeLa cells): 5.4844 µM
- hGSK3b LANCE IC50/EC50 (hGSK3b): > 20 µM
- hKDR LANCE IC50/EC50 (hKDR): > 20 µM
- hp70S6K1 LANCE IC50/EC50 (hp70S6K1 (RPS6KB1)): > 20 µM
- WntCondMedia_Alk Phos C2C12 IC50/EC50 [3]: 13.2162 µM
- WntCondMedia_bCatenin C2C12 IC50/EC50 [4]: > 20 µM
- hFLT3 LANCE IC50/EC50 (hFLT3): > 20 µM
- hJAK2 LANCE IC50/EC50 (hJAK2): > 20 µM

SMILES: CC[C@]1(O)C[C@@H]2CN(CCc3c([nH]c4ccccc34)[C@@](C(=O)OC)(c3cc4c(cc3OC)N(C)[C@H]3[C@@](O)(C(=O)OC)[C@H](OC(C)=O)[C@]5(CC)C=CCN6CC[C@]43[C@@H]65)C2)C1.O=S(=O)(O)O [NCGC00344583-01]
- Hela CellCycMod PI 2N IC50/EC50 (HeLa cells): 0.0048 µM
- Hela CellCycMod PI S Phase IC50/EC50 (HeLa cells): > 10 µM
- Hela CellCycMod PI 4N IC50/EC50 (HeLa cells): 0.00483 µM
- Hela CellCycMod PI MI IC50/EC50 (HeLa cells): 0.00452 µM
- Hela CellCycMod PI Cell Number IC50/EC50 (HeLa cells): 0.00521 µM
- GSK3b inh pretreated_Viability ATP HCT116 IC50/EC50 [5]: 0.001 µM
- Basal_Viability ATP HT-29 IC50/EC50 (HT-29): 0.001 µM
- Basal_Viability ATP RKO IC50/EC50 (RKO): 0.001 µM
- Basal_Viability ATP SNU-C1 IC50/EC50 (SNU-C1): 0.001 µM
- Basal_Viability ATP Colo 320 IC50/EC50 (Colo320): 0.001 µM
- VEGF_ADSC\ECFC Angio CD31 TubeArea IC50/EC50 [1]: 0.0026 µM
- VEGF_ADSC\ECFC Angio Hoechst NucArea IC50/EC50 [2]: > 10 µM
- WntCondMedia_Alk Phos C2C12 IC50/EC50 [3]: > 20 µM
- WntCondMedia_bCatenin C2C12 IC50/EC50 [4]: 0.0035 µM
